One substance from patent US5405760A, “Process for producing recombinant McrBC endonuclease and cleavage of methylated DNA” (New England Biolabs, Inc., priority 1992, dated 1995) can be followed below.

A short description of assay [1]: Properties of the McrBC cleavage reaction (pH, ratio of components). Format: biochemical. The text has this: (a) pH optimum: Activity is detectable when the pH of the reaction is lowered to about 5.8.
Higher or lower ratios reduce cleavage activity.

The subject of assay [2] is methylated DNA. Briefly: McrBC cleavage of plasmid and phage DNA modified by methylases. Format: biochemical. An excerpt:
The recognition sequence of the endonuclease of the present invention may be determined by mapping the locations of McrBC cleavage in various DNAs and comparing the DNA sequences of these regions for homology.
McrBC was also found to cleave M.AluI-methylated doublestranded pUC19 linearized at the AflIII site to generate fragments of 2.25 kb, 1.9 kb, 1.75 kb, 1.275 kb, 1.15 kb, 1.05 kb 0.94 kb, 0.25 kb and 0.27 kb, consistent with cleavage near nucleotides 250, 2300, 1350 and 325. McrBC also cleaves the following: M.HaeIII-methylated (GGmCC) pUC19 linearized at the AflIII site to generate fragments of 2.25 kb, 1.8 kb, 1.25 kb, 1.05 kb, 0.94 kb, 0.5 kb, and 0.45 kb, consistent with cleavage near nucleotide 1600, 2500, 350 and 550; M.HhaI-methylated (GmCGC) pBR322 near nucleotides 434-494 and near nucleotides 594-548; M.HhaI-methylated pUC19 linearized at the AflIII site to generate bands of 2.25 kb, 1.9 kb, 1.15 kb, and 0.94 kb, consistent with cleavage near nucleotides 0 or 60, 2350, 1500 and 620; M.MspI-modified (mCCGG) pUC19 linearized at the AflIII site to generate bands of 1.6 kb, 1.5 kb, 1.0 kb and 0.9 kb, consistent with cleavage near nucleotides 1500 and 1600. In addition, McrBC degrades the following: M.SssI modified (mCG) pBR322 and M.SssI modified pUC19 DNA; agarose-embedded cellular DNA of Escherichia coli carrying ppvuIIM1.9, which is M.PvuII modified ([…]).
pBR322 was modified by M.AluI by standard methods, cleaved with ClaI, and resuspended at 0.1 μg/μl. This substrate was recleaved with one of four restriction endonucleases that cleave once in pBR322 (AflIII, NdeI, ScaI, or SspI). These reactions (0.4 μg DNA in each, cleaved in a volume of 20 μl with the appropriate buffer supplied by New England Biolabs) were phenol extracted, precipitated by addition of ethanol in the presence of salt, and resuspended in dH2 O. Half of each reaction (0.2 μg) was digested with McrBC (1 μl each of McrBL and McrC; McrBL was similar to McrBL fraction iii of EXAMPLE III; McrC was similar to McrC fraction ii of EXAMPLE III). Reactions were loaded onto an agarose gel, with size standards (pBR322 digested with BstNI; NEB #301-1) and the sizes of the various fragments determined from a log-linear plot of cm migration (from a Polaroid photograph) versus known size of size standards. Sizes of fragments larger than the largest size standard were estimated by extrapolation and are indicated by "~". Sizes were lane 1, size standard: 1857, 1060, 929, 383, 121 bp; lane 2, AflIII+McrBC: >4 kb (faint, partial digest product), ~2.5, ~2.2, 1.7, 0.7 kb; lane 3, AflIII: ~2.6, ~2.1 (expected sizes 2.449, 1.912); lane 4, NdeI+McrBC: ~ 2.2, ~2.1, 1.8, 0.4 kb; lane 5, NdeI: ~2.5, ~2.2 kb (expected sizes 2.272, 2.089); lane 6, McrBC: ~2.2, 1.7, 0.93, 0.66, 0.48 kb; lane 7, ScaI: ~3.7, 0.54 (expected sizes 3.822, 0.541); lane 8, ScaI+McrBC: ~2.1, ~1.9, 1.1, 0.66, 0.60, 0.54 kb; lane 9, SspI: ~3.7, 0.28 kb (expected sizes 4.146, 0.215); lane 10, SspI+McrBC: ~2.2, 1.35, 0.66, 0.56 kb.
DNA used was pUC19 linearized at the AflIII site, obtained by standard procedures, and then methylated (0.8 μg) in a reaction containing 8 μl 10 X buffer (for M.AluI, M.HhaI, and M.HpaII this was 10XM.FnuDII buffer: 500 mM Tris[Cl] pH 7.5, 100 mM EDTA, 50 mM β-mercaptoethanol;for M.HaeIII, 500 mM Tris [Cl] pH 8.5; 500 mM NaCl, 10 mM dithiothreitol; for M.MspI, 500 mM Tris, pH 7.5, 500 mM NaCl, 50 mM β-mercaptoethanol; for M.SssI, 500 mM Tris Cl, pH 8.0, 500 mM NaCl, 100 mM EDTA), 8 μl S-adenosylmethionine (32 mM in 5 mM H2 SO4, 10% ethanol) and 4 μl methylase (M.AluI, 5 units/μl; M.HaeIII, 5 units/μl; M.HhaI, 25 units/μl; M.HpaII, 1-5 units/μl,M.MspI, 5 units/μl, M.SssI, 2 units/μl) in a total volume of 82 μl. Methylation reactions were incubated 90 minutes at 37° C., then heat-killed by incubation for 15 minutes at 67°-70° C. These substrates were then distributed to 6 series of 7 tubes for McrBC titration. […]

Assay [3] concerns DNA Escherichia coli W3110(ppvuIIM1.9). Briefly: McrBC digestion of agarose-embedded M.PvuII-modified cellular DNA. The assay is classed as biochemical. The procedure: (§1) Accordingly, the DNA Escherichia coli W3110(ppvuIIM1.9), which is modified in the sequence CAGCTG at the N^4 position of the central cytosine to generate the sequence CAGm4CTG, was treated with. McrBC in the presence of GTP following embedding of the cultured cells in agarose and subsequent lysis in situ to release the DNA, by standard procedures for in situ digestion. DNA carrying this modification was cleaved into many fragments of sizes smaller than 50 kb. From this evidence it was concluded that McrBC recognizes sequences containing N^4 C. In addition, DNA from bacteriophages T4αgt βgt dam^h dam1 and T6αgt, containing 5-hydroxymethylcytosine in place of cytosine and devoid of N^6 -methyladenine, was first treated with EcoRI or SspI and then treated with McrBC in the presence of GTP. Both of these DNAs were cleaved to produce many fragments smaller than 700 bp. From this evidence it was concluded that McrBC recognizes sequences containing hm5C as well m5C and N^4 -methylcytosine.

The subject of assay [4] is DNA from bacteriophages T4αgt βgt dam^h dam1 and T6αgt. In words: McrBC cleavage of 5-hydroxymethylcytosine-containing phage DNA. The assay is classed as biochemical, bacteriophages T4 and T6. The conditions noted are these: hmC DNA first treated with EcoRI or SspI, then McrBC with GTP. Here is the method: as §1

“McrBC: DNA endonuclease obtainable from Escherichia coli; components McrBL and McrC, substantially free of McrBS”: the “pH to which the reaction can be lowered with activity detectable” value in assay [1] is recorded as “about 5.8”. In addition, the “degradation of substrate DNA” value in assay [2] (Dcm-modified (CmCWGG) pBR322, pUC19 or bacteriophage lambda DNA) was “does not degrade”; in assay [2] (M.HpaII-modified (Cm5CGG) pBR322, pUC19 or bacteriophage lambda DNA), “does not degrade”; in assay [2] (M.SssI modified (mCG) pBR322 and pUC19), “degrades”; in assay [2] (pBR322, pUC19 or bacteriophage lambda modified by both Dcm and M.HpaII), “does not degrade”; in assay [3] (agarose-embedded cellular DNA of Escherichia coli carrying ppvuIIM1.9, M.PvuII modified (GAm4CGTC)), “degrades”. Besides, the “cleavage of substrate DNA” value is “cleave” in assay [2] (M.AluI-methylated pUC19 linearized at the AflIII site); “cleaves” in assay [2] (M.HaeIII-methylated (GGmCC) pUC19 linearized at the AflIII site); “cleaves” in assay [2] (M.HhaI-methylated (GmCGC) pBR322); “cleaves” in assay [2] (M.HhaI-methylated pUC19 linearized at the AflIII site); “cleaves” in assay [2] (M.MspI-modified (mCCGG) pUC19 linearized at the AflIII site); “cleave” in assay [2] (pBR322 DNA methylated by M.AluI (AGm5CT)). For the same substance, the “size of fragments produced by cleavage” value in assay [3] (CAGm4CTG-modified DNA, in the presence of GTP, in situ digestion) is given as “smaller than 50 kb”; in assay [4], “smaller than 700 bp”.
